This note sets out measurements from patent US6344468B1, “Substituted isoindolones and their use as cyclic GMP modulators in medicaments” (Aventis Pharma Deutschland GmbH, priority 1998, dated 2002).

The target of this assay is T1, soluble guanylate cyclase (sGC) (Bos taurus, UniProt P16068+P19687).
T1 construct: The sGC which was employed had been isolated from bovine lung; from tissue; host or cells: bovine lung
T1 sequence (P16068 1-619): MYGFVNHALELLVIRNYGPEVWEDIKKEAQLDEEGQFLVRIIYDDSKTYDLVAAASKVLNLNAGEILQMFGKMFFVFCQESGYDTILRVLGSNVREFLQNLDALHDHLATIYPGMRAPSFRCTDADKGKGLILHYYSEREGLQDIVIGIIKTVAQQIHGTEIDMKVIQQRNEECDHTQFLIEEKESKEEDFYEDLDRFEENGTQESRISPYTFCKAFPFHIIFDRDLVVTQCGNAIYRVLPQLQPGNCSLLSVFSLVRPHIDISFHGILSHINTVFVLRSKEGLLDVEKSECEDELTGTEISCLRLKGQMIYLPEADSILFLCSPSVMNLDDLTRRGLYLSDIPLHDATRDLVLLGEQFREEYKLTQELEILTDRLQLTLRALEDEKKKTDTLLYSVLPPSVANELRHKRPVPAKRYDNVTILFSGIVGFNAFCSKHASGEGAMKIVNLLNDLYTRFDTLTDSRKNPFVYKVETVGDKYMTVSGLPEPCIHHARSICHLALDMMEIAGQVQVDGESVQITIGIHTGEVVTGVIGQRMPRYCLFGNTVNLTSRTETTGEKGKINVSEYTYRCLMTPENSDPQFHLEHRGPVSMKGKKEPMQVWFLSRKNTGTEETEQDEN
T1 sequence (P19687 1-691): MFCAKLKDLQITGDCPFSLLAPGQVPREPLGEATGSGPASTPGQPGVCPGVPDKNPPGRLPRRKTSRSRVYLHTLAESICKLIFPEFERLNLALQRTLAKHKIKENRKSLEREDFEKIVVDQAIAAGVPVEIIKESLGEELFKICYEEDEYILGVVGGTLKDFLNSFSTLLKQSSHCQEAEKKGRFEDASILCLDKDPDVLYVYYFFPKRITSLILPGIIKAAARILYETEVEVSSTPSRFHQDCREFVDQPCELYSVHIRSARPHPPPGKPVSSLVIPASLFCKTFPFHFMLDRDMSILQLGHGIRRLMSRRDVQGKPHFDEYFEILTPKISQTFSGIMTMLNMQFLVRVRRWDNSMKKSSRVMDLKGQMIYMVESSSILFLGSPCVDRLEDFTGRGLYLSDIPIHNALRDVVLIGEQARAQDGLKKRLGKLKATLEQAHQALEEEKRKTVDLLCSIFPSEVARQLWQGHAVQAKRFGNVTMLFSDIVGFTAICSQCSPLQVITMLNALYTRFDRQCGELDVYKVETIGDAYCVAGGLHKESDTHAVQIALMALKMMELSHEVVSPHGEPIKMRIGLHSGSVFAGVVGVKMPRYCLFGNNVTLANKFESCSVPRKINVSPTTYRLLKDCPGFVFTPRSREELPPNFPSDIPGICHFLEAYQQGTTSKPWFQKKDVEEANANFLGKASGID
As to the kind of experiment: Activation of the soluble guanylate cyclase (cGMP enzyme immunoassay). It is filed as biochemical. To be noted: sGC isolated from bovine lung; concentration 50 μM; n-fold stimulation of basal enzyme activity = [cGMP]test substance/[cGMP]control. The protocol: The activation of the soluble guanylate cyclase (sGC), which catalyzes the conversion of guanosine triphosphate (GTP) into cyclic guanosine monophosphate (cGMP) and pyrophosphate, by the compounds according to the invention was quantified with the aid of an enzyme immunoassay (EIA) from Amersham. To this end, the substances to be tested were initially incubated with sGC in microtiter plates, and the amount of the cGMP formed was then determined.
The sGC which was employed had been isolated from bovine lung (see Methods in Enzymology, volume 195, p. 377). The test solutions (100 μl per well) contained 50 mM triethanolamine (TEA) buffer (pH 7.5), 3 mM MgCl2, 3 mM reduced glutathione (GSH), 0.1 mM GTP, 1 mM 3-isobutyl-1-methylxanthine (IBMX), suitably diluted enzyme solution and the substance to be tested or, in control experiments, the solvent. The substances to be tested were dissolved in dimethyl sulfoxide (DMSO) and the solution was diluted with DMSO/water, so that the final concentration of the substance to be tested in the test mixture was 50 μM. The DMSO concentration in the test mixture was 5% (v/v). The reaction was initiated by addition of the sGC. The reaction mixture was incubated at 37° C. for 15 to 20 minutes and the reaction was then stopped by ice-cooling and addition of the stop reagent (50 mM EDTA, pH 8.0). An aliquot of 50 μl was taken and used for determining the cGMP content using the acetylation protocol of the Amersham cGMP-EIA kit. The absorption of the samples was measured at 450 nm (reference wavelength 620 nm) in a microtiter plate reader. The cGMP concentration was determined using a standard curve which was obtained under the same test conditions. The activation of sGC by a test substance is reported as the n-fold stimulation of the basal enzyme activity which was found in the control experiments (using solvent instead of test substance) (calculated using the formula
n-fold stimulation=[cGMP]test substance/[cGMP]control).

In the case of `COc1cccc(CCN2C(=O)c3ccccc3C2(O)c2ccc(F)cc2)c1` (stereo not shown) [Example 17, 3-(4-Fluorophenyl)-3-hydroxy-2-(2-(3-methoxyphenyl)ethyl)-2,3-dihydro-isoindol-1-one], the n-fold stimulation is given as 16-fold. As for `COc1cccc(CCN2C(=O)c3c(F)c(F)c(F)c(F)c3C2(O)c2ccc(F)cc2)c1` (stereo not shown) [Example 33, 4,5,6,7-Tetrafluoro-3-(4-fluorophenyl)-3-hydroxy-2-(2-(3-methoxyphenyl)-ethyl)-2,3-dihydroisoindol-1-one], the n-fold stimulation was 9.5-fold.

On to `OCc1ccc(-c2nn(Cc3ccccc3)c3ccccc23)o1` [A, 1-benzyl-3-(5-hydroxymethyl-2-furyl)-indazole, reference compound], for which the n-fold stimulation is listed as 2-fold. Turning to `COc1cccc(CCN2C(=O)c3ccccc3C2(O)c2ccncc2)c1` (stereo not shown) [Example 29, 3-Hydroxy-2-(2-(3-methoxyphenyl)ethyl)-3-(4pyridyl)-2,3-dihydroisoindol-1-one], the n-fold stimulation is 11.8-fold.
